Reference: patent US6262065A (priority 1998, dated 2001)

Legend:
[1] = test system: amyloglucosidase; settings: cited from earlier work
[2] = test system: glucosidase I; settings: cited from earlier work
[3] = biological target: T1, α-mannosidase (jack bean) (Canavalia ensiformis, UniProt C0HJB3); assay: inhibition of α-mannosidase (jack bean), colorimetric release of p-nitrophenol from p-nitrophenyl α-D-mannopyranoside; format: biochemical; settings: initial screening
T1 construct: purchased Sigma Chemical Co
T1 sequence (C0HJB3 1-562 limits assumed): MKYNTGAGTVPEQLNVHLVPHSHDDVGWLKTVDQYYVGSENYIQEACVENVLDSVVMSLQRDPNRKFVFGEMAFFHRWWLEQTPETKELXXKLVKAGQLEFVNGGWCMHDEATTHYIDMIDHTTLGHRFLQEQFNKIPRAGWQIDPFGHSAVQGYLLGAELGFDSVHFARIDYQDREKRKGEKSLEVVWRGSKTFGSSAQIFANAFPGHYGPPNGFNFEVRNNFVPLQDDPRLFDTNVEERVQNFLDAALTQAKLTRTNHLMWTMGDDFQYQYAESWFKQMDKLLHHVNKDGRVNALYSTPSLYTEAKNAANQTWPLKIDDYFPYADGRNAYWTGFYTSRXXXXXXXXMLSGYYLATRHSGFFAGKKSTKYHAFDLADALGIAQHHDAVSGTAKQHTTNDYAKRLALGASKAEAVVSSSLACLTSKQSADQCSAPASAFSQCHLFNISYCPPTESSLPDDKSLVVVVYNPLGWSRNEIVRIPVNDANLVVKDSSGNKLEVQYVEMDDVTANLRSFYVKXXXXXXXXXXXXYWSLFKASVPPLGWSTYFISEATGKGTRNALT
T1 sequence (C0HJB3 563-981 limits assumed): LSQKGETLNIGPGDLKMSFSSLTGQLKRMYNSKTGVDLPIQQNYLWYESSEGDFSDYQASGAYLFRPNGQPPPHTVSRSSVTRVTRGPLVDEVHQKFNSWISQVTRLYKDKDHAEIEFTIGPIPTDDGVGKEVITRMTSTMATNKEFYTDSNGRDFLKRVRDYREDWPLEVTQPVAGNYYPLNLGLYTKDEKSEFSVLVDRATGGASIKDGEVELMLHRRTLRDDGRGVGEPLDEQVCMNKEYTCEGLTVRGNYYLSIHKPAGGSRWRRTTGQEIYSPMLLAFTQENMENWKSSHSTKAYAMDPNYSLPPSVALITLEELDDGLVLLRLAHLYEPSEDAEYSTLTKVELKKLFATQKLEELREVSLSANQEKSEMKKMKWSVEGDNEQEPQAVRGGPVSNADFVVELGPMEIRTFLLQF
Method: The enzyme α-mannosidase (from jack bean) and the corresponding p-nitrophenyl α-D-mannopyranoside substrate was obtained from Sigma Chemical Co. Enzyme inhibition was assayed colorimetrically by monitoring the release of p-nitrophenol from p-nitrophenyl α-D-mannopyranoside according to the procedure described by Tropea, et. al. (Tropea, J. E., et al, Biochemistry, Vol. 28, pp. 2027-2034 (1989)).

[4] = test system: HIV; settings: cited from earlier work
[5] = test system: mannosidases including the glycoprotein processing enzyme mannosidase II; settings: many mannosidases including mannosidase II; cited from earlier work

OCC1C(O)C(O)C2C(O)CCN12 (stereo not shown) [compound 1]
inhibition of amyloglucosidase [1]: good inhibitors | inhibition of glucosidase I [2]: good inhibitors

OC[C@H]1[C@@H](O)[C@@H](O)[C@H]2[C@H](O)CCCN21 [(VIII), (1S,2R,3S,8R,8aR)-3-(Hydroxymethyl)-1,2,8-trihydroxyindolizidine]
IC50 [3]: 45 µM

OC[C@@H]1[C@@H](O)[C@@H](O)[C@H]2[C@H](O)CCCN21 [(VII), (1S,2R,3R,8R,8aR)-3-(Hydroxymethyl)-1,2,8-trihydroxyindolizidine]
IC50 [3]: 1.2 µM

OCC1C(O)C(O)C2C(O)CCN12 (stereo not shown) [compound 4]
inhibition of amyloglucosidase [1]: good inhibitors | inhibition of glucosidase I [2]: good inhibitors | anti-HIV activity [4]: shows anti-HIV activity

OCC1C(O)C(O)C2C(O)CCN12 (stereo not shown) [compound 3]
inhibition of amyloglucosidase [1]: good inhibitors | inhibition of glucosidase I [2]: good inhibitors

O[C@H]1[C@H]2[C@H](O)CCCN2C[C@H]1O [swainsonine, (-)-swainsonine]
inhibition of mannosidases [5]: potent inhibitor
